This is an account of results in ChEMBL document CHEMBL1151951, “Brartemicin, an inhibitor of tumor cell invasion from the actinomycete Nonomuraea sp” (J Nat Prod, 2009).

Assay [1] can be described thus: Antiinvasive activity against mouse 26-L5 cells at 1 ug/ml. The assay is classed as functional.
Assay [2] can be described thus: Antiinvasive activity against mouse 26-L5 cells. The assay is classed as functional, cell-based.
The species named for assay [3] is Mus musculus. The assay can be described thus: Cytotoxicity against mouse 26-L5 cells at 10 ug/ml. The assay is classed as functional, cell-based.
The species entered for assay [4] is Mus musculus. The assay can be described thus: Antiinvasive activity against mouse 26-L5 cells assessed as inhibition of cell migration. The format is functional, cell-based.

Activity calls are given as the source filed them. The rule behind the calls is not given here.

For `O=C(OC[C@H]1O[C@H](O[C@H]2O[C@H](COC(=O)c3ccccc3O)[C@@H](O)[C@H](O)[C@H]2O)[C@H](O)[C@@H](O)[C@@H]1O)c1ccccc1O`, the Activity in assay [1] is listed as 35%.

On to `O=C(OC[C@H]1O[C@H](O[C@H]2O[C@H](COC(=O)c3ccccc3)[C@@H](O)[C@H](O)[C@H]2O)[C@H](O)[C@@H](O)[C@@H]1O)c1ccccc1`, for which the Activity in assay [1] amounted to 51%.

Turning to `O=C(OC[C@H]1O[C@H](O[C@H]2O[C@H](COC(=O)c3cccc(O)c3O)[C@@H](O)[C@H](O)[C@H]2O)[C@H](O)[C@@H](O)[C@@H]1O)c1cccc(O)c1O`, the Activity in assay [1] worked out at 40%.

Usually IC50 stands for the concentration that gives 50% inhibition. As to `Cc1cc(O)cc(O)c1C(=O)OC[C@H]1O[C@H](O[C@H]2O[C@H](COC(=O)c3c(C)cc(O)cc3O)[C@@H](O)[C@H](O)[C@H]2O)[C@H](O)[C@@H](O)[C@@H]1O` [BRARTEMICIN], the IC50 in assay [2] turned out to be 390 nM. The Activity entry in the assay filed under Mus musculus [3] was “Not toxic”; in assay [1] it was 59%. The result in the assay listed under Mus musculus [4] was inactive.
